Experimental data as given in patent publication US6498158B1, “Il-5 inhibiting 6-azauracil derivatives” (Janssen Pharmaceutica N.V., priority 1998, dated 2002).

How the values were obtained:
IL-5 production = experiment: In vitro inhibition of IL-5 production in human blood; format: cell-based; conditions: test dose of 1×10^−6 M, phytohemagglutinin-stimulated human whole blood, ELISA; for % inh. (percentage inhibition of IL-5 production): 48 hours; for inhibition at 1 µM: Homo sapiens, 48 h, read-out: % inh. (percentage inhibition of IL-5 production)
Experimental: In Vitro Inhibition of IL-5 Production in Human Blood
Human Whole Blood Stimulation
Peripheral blood from healthy male donors was drawn into heparinized syringes (12.5 U heparin/ml). Blood samples were three-fold diluted in RMPI 1640 medium (Life Technologies, Belgium) supplemented with 2 mM L-glutamine, 100 U/ml penicillin and […] streptomycin, and […] fractions were distributed in 24-well multidisc plates. Blood samples were preincubated (60 minutes at 37° C.) in a humidified 6% CO2-atmosphere with 100 ml of drug solvent (final concentration 0.02% dimethylsulfoxide in RPMI 1640) or with 100 ml of an appropriate dose of test compound before being stimulated by the addition of […] of phytohemagglutinin HA17 (Murex, UK) at a final concentration of […]. After 48 hours, cell-free supernatant fluids were collected by centrifugation and stored at −70° C. until tested for the presence of IL-5.
IL-5 measurements were conducted as described in Van Wauwe et al. (1996, Inflamm Res, 45, 357-363) on page 358 using ELISA.
Table 3 lists the percentage inhibition of IL-5 production (column “% inh”) at a test dose of 1×10^−6 M for the compounds of the present invention.

SMILES | % inh. (percentage inhibition of IL-5 production) (IL-5 production) [%] | melting point [°C] | inhibition at 1 µM (IL-5 production) [%]
Cc1sc(C2(c3c(Cl)cc(-n4ncc(=O)[nH]c4=O)cc3Cl)CCc3ccccc32)nc1-c1ccccc1 (centres unmarked) [Compound 5] | 88 | 122 | –
Cc1sc(C2(c3c(Cl)cc(-n4ncc(=O)[nH]c4=O)cc3Cl)CCc3ccccc32)nc1-c1ccccc1 (centres unmarked) [Compound 6] | 91 | – | –
Cc1sc(C2(c3c(Cl)cc(-n4ncc(=O)[nH]c4=O)cc3Cl)CCc3ccccc32)nc1-c1ccccc1 (centres unmarked) [Compound 4] | – | 237 | 89.3
CCOC(=O)C1(c2c(Cl)cc(-n3ncc(=O)[nH]c3=O)cc2Cl)CCc2ccccc21 (centres unmarked) [Compound 2] | – | 88 | 63
N#CC1(c2c(Cl)cc(-n3ncc(=O)[nH]c3=O)cc2Cl)CCc2ccccc21 (centres unmarked) [Compound 1] | – | – | 70.5
